According to patent publication US20050084612A1, “Surface coating for microfluidic devices that incorporate a biopolymer resistant moiety” (Caliper Life Sciences, Inc., priority 1999, published 2005):

Molecular target: T1, PTP1b (Homo sapiens, UniProt P18031)
T1 sequence (P18031 1-435): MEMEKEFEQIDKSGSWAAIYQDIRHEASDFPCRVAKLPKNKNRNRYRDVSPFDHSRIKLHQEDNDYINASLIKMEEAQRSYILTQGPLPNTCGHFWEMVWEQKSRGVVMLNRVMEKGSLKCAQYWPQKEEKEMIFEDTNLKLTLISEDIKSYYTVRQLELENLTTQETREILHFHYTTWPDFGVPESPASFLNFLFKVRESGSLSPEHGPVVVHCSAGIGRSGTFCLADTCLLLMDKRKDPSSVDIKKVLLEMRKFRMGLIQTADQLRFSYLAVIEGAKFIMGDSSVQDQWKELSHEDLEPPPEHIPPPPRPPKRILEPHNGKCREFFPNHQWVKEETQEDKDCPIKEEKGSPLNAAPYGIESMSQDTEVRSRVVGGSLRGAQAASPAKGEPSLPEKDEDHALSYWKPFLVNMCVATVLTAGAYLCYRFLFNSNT
Test: PTP1b/diFMUP Km measurement by substrate titration in microfluidic device
Format: biochemical
Details: read-out: Km PTP1b/diFMUP; PEI-2 coated device, no NDSB, 50 mM HEPES+10 mM DTT
Procedure: A 0.1 mg/ml PTP1b solution (12 μl) was placed in well 8. […] The fluorescence signal is detected at the end of the main channel.
The first 5 steps are substrate-only titrations using well 2 and well 3, with buffer flow from well 1. These provide measurements of the substrate background signal. The next 5 steps are the same substrate titration steps, but with enzyme flowing from well 8. The difference between these signals and the substrate-only background signal is product signal. […] The final concentration of the substrate was calculated from the known well concentration and the ratio of currents as programmed in the script. Plotting 1/(product signal per unit time) vs. 1/(substrate concentration) yields the Lineweaver-Burk plot with Km equal to slope divided by the y-intercept.
The final substrate concentration was calculated from Equation 4.

Km: 3 µM
Compound: Cc1cc(=O)oc2c(F)c(OP(=O)(O)O)c(F)cc12 [diFMUP, di-6-a-difluoro-4-methylumbelliferyl phosphate]
